Results from PubChem BioAssay AID248 (DTP/NCI, 2004).
“And” between values parts separate entries of the source, which are not always exact repeats. Identical values can stand only once. Inconclusive results and toxic doses are left out. No stated cut-off is given here; in the data, active means T/C of 150% or more; inactive means T/C below 125%. Peptide text beside a SMILES is read from it. * marks the point of attachment. Cbz = O=C(OCc1ccccc1)*

System: L1210 leukemia ip in BDF1 mice, survival T/C
Assay: NCI In Vivo Anticancer Drug Screen. Data for tumor model L1210 Leukemia (intraperitoneal) in B6D2F1 (BDF1) mice
Details: endpoint: mean survival time, higher = longer survival
Procedure, shortened: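 Ratio derived from survival: compound-dosed mice over vehicle-dosed mice, all bearing a transplantable tumor.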

[1] = dose: 100.0 mg/kg/injection, schedule: Q01DX001 (ip), vehicle: saline
[2] = dose: 200.0 mg/kg/injection, schedule: Q01DX001 (ip), vehicle: saline
[3] = dose: 400.0 mg/kg/injection, schedule: Q01DX001 (ip), vehicle: saline
[4] = dose: 100.0 mg/kg/injection, schedule: Q04DX003 (ip), vehicle: Klucel (hydroxypropylcellulose) (HPC)
[5] = dose: 200.0 mg/kg/injection, schedule: Q04DX003 (ip), vehicle: Klucel (hydroxypropylcellulose) (HPC)
[6] = dose: 400.0 mg/kg/injection, schedule: Q04DX003 (ip), vehicle: Klucel (hydroxypropylcellulose) (HPC)
[7] = dose: 100.0 mg/kg/injection, schedule: Q01DX009 (ip), vehicle: Klucel (hydroxypropylcellulose) (HPC)
[8] = dose: 200.0 mg/kg/injection, schedule: Q01DX009 (ip), vehicle: Klucel (hydroxypropylcellulose) (HPC)
[9] = dose: 400.0 mg/kg/injection, schedule: Q01DX009 (ip), vehicle: Klucel (hydroxypropylcellulose) (HPC)
[10] = dose: 100.0 mg/kg/injection, schedule: Q04DX003 (ip), vehicle: saline
[11] = dose: 200.0 mg/kg/injection, schedule: Q04DX003 (ip), vehicle: saline
[12] = dose: 400.0 mg/kg/injection, schedule: Q04DX003 (ip), vehicle: saline

Measured: T/C

CN(C)CCCN1CCC2(CCC(CO)CC2)CC1
inactive: [1] 94 % of control | [2] 94 % of control | [3] 102 % of control

CCC(=O)C(CCCCCCOc1ccc(OC)cc1Cl)C(=O)CC
inactive: dose: 100.0 mg/kg/injection, schedule: Q01DX009 (ip), vehicle: saline with Tween-80 92 % of control | dose: 200.0 mg/kg/injection, schedule: Q01DX009 (ip), vehicle: saline with Tween-80 89 % of control | dose: 400.0 mg/kg/injection, schedule: Q01DX009 (ip), vehicle: saline with Tween-80 87 % of control

Cc1ccc(CNC(=S)Nc2ccccc2)cc1
inactive: dose: 1.56 mg/kg/injection, schedule: Q01DX009 (ip), vehicle: Klucel (hydroxypropylcellulose) (HPC) 107 % of control | dose: 3.12 mg/kg/injection, schedule: Q01DX009 (ip), vehicle: Klucel (hydroxypropylcellulose) (HPC) 104 % of control | dose: 6.25 mg/kg/injection, schedule: Q01DX009 (ip), vehicle: Klucel (hydroxypropylcellulose) (HPC) 96 % of control and 100 % of control | [4] 96 % of control | [5] 96 % of control | [6] 92 % of control

O=C1NC(c2cccs2)(c2cccs2)C(=O)N1Cl
inactive: dose: 6.25 mg/kg/injection, schedule: Q01DX009 (ip), vehicle: water 100 % of control | dose: 12.5 mg/kg/injection, schedule: Q01DX009 (ip), vehicle: water 97 % of control and 116 % of control | dose: 25.0 mg/kg/injection, schedule: Q01DX009 (ip), vehicle: water 98 % of control and 113 % of control | dose: 25.0 mg/kg/injection, schedule: Q04DX003 (ip), vehicle: water 92 % of control | dose: 50.0 mg/kg/injection, schedule: Q01DX009 (ip), vehicle: water 104 % of control and 87 % of control | dose: 50.0 mg/kg/injection, schedule: Q04DX003 (ip), vehicle: water 100 % of control | dose: 100.0 mg/kg/injection, schedule: Q01DX009 (ip), vehicle: water 87 % of control | dose: 100.0 mg/kg/injection, schedule: Q04DX003 (ip), vehicle: water 97 % of control and 112 % of control | dose: 150.0 mg/kg/injection, schedule: Q01DX009 (ip), vehicle: water 116 % of control | dose: 200.0 mg/kg/injection, schedule: Q01DX009 (ip), vehicle: water 93 % of control

O=c1[nH]cnc2c1ncn2C1CCCCC1
inactive: dose: 23.12 mg/kg/injection, schedule: Q01DX Z (ip), vehicle: carboxymethylcellulose (CMC) 100 % of control | dose: 46.25 mg/kg/injection, schedule: Q01DX Z (ip), vehicle: carboxymethylcellulose (CMC) 105 % of control | dose: 46.25 mg/kg/injection, schedule: Q01DX Z (oral), vehicle: carboxymethylcellulose (CMC) 94 % of control | dose: 92.5 mg/kg/injection, schedule: Q01DX Z (ip), vehicle: carboxymethylcellulose (CMC) 96 % of control | dose: 92.5 mg/kg/injection, schedule: Q01DX Z (oral), vehicle: carboxymethylcellulose (CMC) 97 % of control | dose: 185.0 mg/kg/injection, schedule: Q01DX Z (ip), vehicle: carboxymethylcellulose (CMC) 100 % of control | dose: 185.0 mg/kg/injection, schedule: Q01DX Z (oral), vehicle: carboxymethylcellulose (CMC) 100 % of control | dose: 370.0 mg/kg/injection, schedule: Q01DX Z (oral), vehicle: carboxymethylcellulose (CMC) 97 % of control

CC(NC(=O)C1CC2c3cccc4[nH]cc(c34)CC2N(C)C1)C(C)(C)C (stereo not given)
inactive: dose: 20.0 mg/kg/injection, schedule: Q01DX001 (ip), vehicle: Klucel (hydroxypropylcellulose) (HPC) 96 % of control | dose: 40.0 mg/kg/injection, schedule: Q01DX001 (ip), vehicle: Klucel (hydroxypropylcellulose) (HPC) 101 % of control | dose: 80.0 mg/kg/injection, schedule: Q01DX001 (ip), vehicle: Klucel (hydroxypropylcellulose) (HPC) 104 % of control

COC(=O)C1C2OC3C(OC(=O)C31)C2Br (stereo not given)
inactive: [4] 91 % of control | [5] 96 % of control | [6] 102 % of control

CC(=O)[O][Hg][c]1cc[c]([Hg][O]C(C)=O)s1
inactive: dose: 3.0 mg/kg/injection, schedule: Q01DX009 (ip), vehicle: Klucel (hydroxypropylcellulose) (HPC) 91 % of control | dose: 6.0 mg/kg/injection, schedule: Q01DX009 (ip), vehicle: Klucel (hydroxypropylcellulose) (HPC) 89 % of control | dose: 12.5 mg/kg/injection, schedule: Q04DX003 (ip), vehicle: Klucel (hydroxypropylcellulose) (HPC) 100 % of control

O=C(O)CCC(=O)Nc1ccc(S(=O)(=O)Nc2nccs2)cc1
inactive: dose: 3.5 mg/kg/injection, schedule: Q01DX009 (ip), vehicle: Klucel (hydroxypropylcellulose) (HPC) 93 % of control | dose: 5.3 mg/kg/injection, schedule: Q01DX009 (ip), vehicle: Klucel (hydroxypropylcellulose) (HPC) 93 % of control | dose: 8.0 mg/kg/injection, schedule: Q01DX009 (ip), vehicle: Klucel (hydroxypropylcellulose) (HPC) 91 % of control | [7] 94 % of control | [4] 101 % of control | [8] 98 % of control | [5] 103 % of control | [9] 94 % of control | [6] 97 % of control

NCc1ccccc1[N+](=O)[O-]
inactive: [10] 104 % of control | [11] 104 % of control | [12] 102 % of control

C1=Cc2ccccc2C(c2ccccc2)S1 (stereo not given)
inactive: dose: 100.0 mg/kg/injection, schedule: Q04DX002 (ip), vehicle: saline 103 % of control | dose: 200.0 mg/kg/injection, schedule: Q04DX002 (ip), vehicle: saline 98 % of control | dose: 400.0 mg/kg/injection, schedule: Q04DX002 (ip), vehicle: saline 103 % of control

CC(=O)c1c2ccccc2cc2ccccc12
inactive: [1] 106 % of control | [2] 106 % of control | [3] 101 % of control

C#CC(=O)OCC#CCOC(=O)C#C
inactive: dose: 1.56 mg/kg/injection, schedule: Q01DX009 (ip), vehicle: saline with Tween-80 111 % of control | dose: 3.12 mg/kg/injection, schedule: Q01DX009 (ip), vehicle: saline with Tween-80 101 % of control | dose: 6.25 mg/kg/injection, schedule: Q01DX009 (ip), vehicle: saline with Tween-80 87 % of control and 90 % of control

COC(=O)C(CC(C)C)NC(=O)C(Cc1ccccc1)NC(=O)C(CO)NC(=O)OCc1ccccc1 (stereo not drawn) (Cbz-Ser-Phe-Leu-OMe; configuration not given here)
inactive: [1] 93 % of control | [2] 93 % of control | [3] 94 % of control

CC(=O)OCCNc1ccc([N+](=O)[O-])cc1[N+](=O)[O-]
inactive: dose: 100.0 mg/kg/injection, schedule: Q01DX009 (ip), vehicle: acetone 109 % of control | [10] 101 % of control | dose: 200.0 mg/kg/injection, schedule: Q01DX009 (ip), vehicle: acetone 97 % of control | [11] 103 % of control | dose: 400.0 mg/kg/injection, schedule: Q01DX009 (ip), vehicle: acetone 112 % of control | [12] 95 % of control

CC(C)(CO)NCC(C)(C)[N+](=O)[O-]
inactive: [4] 103 % of control | [5] 102 % of control | [6] 112 % of control

CC(=O)Nc1ccc(NC(=O)/C=C/c2ccccc2)cc1
inactive: [7] 103 % of control | [8] 95 % of control | [9] 105 % of control
